From patent US6166072A, “Amino acid derivatives” (Allelix Neuroscience, Inc., priority 1999, dated 2000)

The molecules below were run against T1, human GlyT-2 (Homo sapiens, UniProt Q9Y345) (assay: Glycine uptake by cells transiently transfected with human GlyT-2). Conditions: GlyT-2 versus GlyT-1 transfected cells.
T1 construct: [3H]glycine uptake
T1 sequence (Q9Y345 1-797): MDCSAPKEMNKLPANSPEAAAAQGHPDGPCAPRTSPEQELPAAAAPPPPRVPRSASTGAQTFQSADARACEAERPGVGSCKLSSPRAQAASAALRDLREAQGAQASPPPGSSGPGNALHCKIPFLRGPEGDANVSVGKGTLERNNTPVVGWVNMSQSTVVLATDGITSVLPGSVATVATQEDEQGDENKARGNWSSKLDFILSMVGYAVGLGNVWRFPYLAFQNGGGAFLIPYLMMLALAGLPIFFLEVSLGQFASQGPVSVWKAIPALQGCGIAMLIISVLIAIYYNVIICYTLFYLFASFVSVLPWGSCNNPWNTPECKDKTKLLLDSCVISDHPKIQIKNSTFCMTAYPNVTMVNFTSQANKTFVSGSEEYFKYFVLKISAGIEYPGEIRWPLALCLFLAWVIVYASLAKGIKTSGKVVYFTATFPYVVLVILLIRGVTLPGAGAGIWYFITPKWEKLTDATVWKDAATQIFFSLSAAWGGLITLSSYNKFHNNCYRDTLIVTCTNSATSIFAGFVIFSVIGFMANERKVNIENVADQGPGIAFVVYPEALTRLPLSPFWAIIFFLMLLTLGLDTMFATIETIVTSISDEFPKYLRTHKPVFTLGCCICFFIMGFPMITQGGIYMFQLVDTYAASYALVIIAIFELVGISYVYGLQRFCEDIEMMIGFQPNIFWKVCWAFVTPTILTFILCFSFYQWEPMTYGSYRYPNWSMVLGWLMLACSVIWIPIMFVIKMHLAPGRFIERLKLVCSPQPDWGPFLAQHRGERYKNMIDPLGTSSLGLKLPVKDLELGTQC
Format: cell-based
Description: (§1) This example illustrates a method for the measurement of glycine uptake by transfected cultured cells.
(§2) Cells transiently transfected with GlyT-1C (see Kim, et al., Molecular Pharmacology, 45, 1994:608-617) and human GlyT-2 (the homolog of the rat GlyT-2 described by Liu et al., J. Biological Chemistry, 268, 1993.22802-22808) were washed three times with HEPES buffered saline (HBS). The cells were then incubated 10 minutes at 37° C., after which a solution containing 50 nM [^3 H]glycine (17.5 Ci/mmol) and either (a) no potential competitor, (b) […] nonradioactive glycine or (c) a concentration of a candidate drug. A range of concentrations of the candidate drug was used to generate data for calculating the concentration resulting in 50% of the effect (e.g., the IC50 's which are the concentration of drug inhibiting glycine uptake by 50%). The cells were then incubated another 10 minutes at 37° C., after which the cells were aspirated and washed three times with ice-cold HBS. The cells were harvested, scintillant was added to the cells, the cells were shaken for 30 minutes, and the radioactivity in the cells was counted using a scintillation counter. Data were compared between the same cells contacted and not contacted by the candidate agent, and between cells having GlyT-1 activity versus cells having GlyT-2 activity, depending on the assay being conducted.
`CCc1ccc(C(SCC(N)C(=O)O)c2ccc(F)cc2F)cc1CC` (racemic) [S-(3,4-Diethyl-2',4'-difluorodiphenyl)methyl-D,L-cysteine] was tested, and the “selectivity for inhibition of glycine transport via GlyT-2 versus GlyT-1” value (shortened to “selectivity for inhibition”) was “selectivity for the inhibition of glycine transport via GlyT-2 versus GlyT-1”. With `CCc1ccc(C(SC(C)(C)C(N)C(=O)O)c2ccccc2F)cc1CC` (racemic) [S-(3,4-Diethyl-2'-fluorodiphenyl)methyl-D,L-dimethylcysteine] the “selectivity for inhibition” value was “selectivity for the inhibition of glycine transport via GlyT-2 versus GlyT-1”. `CCc1ccc(C(SCC(N)C(=O)O)c2ccc([N+](=O)[O-])cc2)cc1CC` (racemic) [S-(3,4-Diethyl-4'-nitrodiphenyl)methyl-D,L-cysteine] was tested, and the “selectivity for inhibition” value was “selectivity for the inhibition of glycine transport via GlyT-2 versus GlyT-1”. In the case of `Cc1ccc(C(SCC(N)C(=O)O)c2ccc(C)cc2)cc1` (racemic) [S-(4,4'-Dimethyldiphenyl)methyl-D,L-cysteine], the “selectivity for inhibition” value is reported as “selectivity for the inhibition of glycine transport via GlyT-2 versus GlyT-1”. For `NC(CSC(c1ccc(F)cc1)c1ccccc1-c1ccccc1)C(=O)O` (racemic) [S-(4-Fluoro-2'-phenyldiphenyl)methyl-D,L-cysteine], the “selectivity for inhibition” value was “selectivity for the inhibition of glycine transport via GlyT-2 versus GlyT-1”. `Cc1ccc(C(SCC(N)C(=O)O)c2ccc(C)s2)s1` (racemic) [S-[α,α-Bis(5-methyl-2-thienyl)]methyl-D,L-cysteine] was tested, and the “selectivity for inhibition” value was “selectivity for the inhibition of glycine transport via GlyT-2 versus GlyT-1”. For `NC(CSC(c1ccc2c(c1)CCCC2)c1ccc(F)cc1F)C(=O)O` (racemic) [S-[α-(5,6,7,8-Tetrahydronaphth-2-yl)-α-(2,4-difluorophenyl)]methyl-D,L-cysteine], the “selectivity for inhibition” value was “selectivity for the inhibition of glycine transport via GlyT-2 versus GlyT-1”.

What follows are molecules tested against T2, GlyT-1C (Homo sapiens, UniProt P48067) (assay: Glycine uptake by cells transiently transfected with GlyT-1C). Conditions: GlyT-1 and GlyT-2 transfected cells.
T2 construct: [3H]glycine uptake
T2 sequence (P48067 1-706): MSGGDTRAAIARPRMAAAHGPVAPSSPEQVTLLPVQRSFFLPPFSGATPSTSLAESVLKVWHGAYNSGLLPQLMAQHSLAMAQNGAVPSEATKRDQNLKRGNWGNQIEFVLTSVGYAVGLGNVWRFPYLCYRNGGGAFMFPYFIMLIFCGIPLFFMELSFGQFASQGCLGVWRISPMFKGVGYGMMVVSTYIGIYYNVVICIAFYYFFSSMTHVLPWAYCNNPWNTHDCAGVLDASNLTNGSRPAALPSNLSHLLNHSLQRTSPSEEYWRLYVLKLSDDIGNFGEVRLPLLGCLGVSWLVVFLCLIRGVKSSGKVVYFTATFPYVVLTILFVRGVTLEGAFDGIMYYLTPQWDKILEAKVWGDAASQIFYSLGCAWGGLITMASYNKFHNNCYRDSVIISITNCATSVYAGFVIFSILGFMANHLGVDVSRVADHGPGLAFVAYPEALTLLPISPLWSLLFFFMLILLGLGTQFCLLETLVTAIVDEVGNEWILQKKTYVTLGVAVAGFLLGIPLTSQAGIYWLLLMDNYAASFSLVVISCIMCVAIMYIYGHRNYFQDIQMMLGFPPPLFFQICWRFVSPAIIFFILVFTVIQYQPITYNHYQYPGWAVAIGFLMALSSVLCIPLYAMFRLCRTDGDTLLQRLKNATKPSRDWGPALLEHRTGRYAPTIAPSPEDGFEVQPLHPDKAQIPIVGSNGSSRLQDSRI
Format: cell-based
Description: as §1, §2
For `CCCc1ccc(C(SCC(N)C(=O)O)c2ccc(F)cc2F)cc1` (racemic) [S-(2,4-Difluoro-4'-^npropyldiphenyl)methyl-D,L-cysteine], the “mixed GlyT-1/GlyT-2 activity” value was “mixed GlyT-1/GlyT-2 activity”. For `CCc1ccc(C(SCC(N)C(=O)O)c2cccc(F)c2)cc1CC` (racemic) [S-(3,4-Diethyl-3'-fluorodiphenyl)methyl-D,L-cysteine], the “mixed GlyT-1/GlyT-2 activity” value was “mixed GlyT-1/GlyT-2 activity”. With `CCc1ccc(C(SCC(N)C(=O)O)c2cccc(C(F)(F)F)c2)cc1CC` (racemic) [S-(3,4-Diethyl-3'-trifluoromethyidiphenyl)methyl-D,L-cysteine] the “mixed GlyT-1/GlyT-2 activity” value was “mixed GlyT-1/GlyT-2 activity”. `CCc1ccc(C(SC(C)(C)C(N)C(=O)O)c2ccc(F)cc2)cc1CC` (racemic) [S-(3,4-Diethyl-4-fluorodiphenyl)methyl-D,L-dimethylcysteine] was tested, and the “mixed GlyT-1/GlyT-2 activity” value was “mixed GlyT-1/GlyT-2 activity”. In the case of `CC(C)(C)c1ccc(C(SCCC(N)C(=O)O)c2ccccc2)cc1` (racemic) [S-(4'-Butyidiphenyl)methyl-D,L-homocysteine], the “mixed GlyT-1/GlyT-2 activity” value is reported as “mixed GlyT-1/GlyT-2 activity”.
